The source of these data is patent US12383505B2, “Nanoparticle for the remodeling of cancer-associated fibroblasts” (University of South Carolina, priority 2021, dated 2025).

Assay [1] has as its system NIH3T3 cells. Description: DOX induced CAF differentiation, immunocytochemistry of α-SMA and fibronectin. Format: cell-based, mouse. The conditions noted are these: 0.05 μM of free DOX for 48 hours. An excerpt: (§1) Anthracycline-containing regimens are predominantly used in neoadjuvant chemotherapy for breast cancer. See, J. Wang, T. A. Buchholz, L. P. Middleton, D. C. Allred, S. L. Tucker, H. M. Kuerer, F. J. Esteva, G. N. Hortobagyi, A. A. Sahin, Cancer 2002, 94, 3107; M. S. van Ramshorst, A. van der Voort, E. D. van Werkhoven, I. A. Mandjes, I. Kemper, V. O. Dezentjé, I. M. Oving, A. H. Honkoop, L. W. Tick, A. J. van de Wouw, The Lancet Oncology 2018. However, only a little benefit was achieved from this neoadjuvant chemotherapy in the majority of patients. […] Chen, Y.-A. Lai, Y.-C. Lin, J.-W. Ma, L.-F. Huang, N.-S. Yang, C.-T. Ho, S.-C. Kuo, T.-D. Way, Journal Of Agricultural And Food Chemistry 2013, 61, 11817; N. Chintalaramulu, R. Vadivelu, N. Nguyen, I. Cock, Inflammopharmacology 2020, especially at lower doses. To investigate the relationship between DOX and the differentiation and transdifferentiation of CAF and the potential effect of T-CeNP in inhibiting DOX-induced metastasis, T-CeNP was added to NIH3T3 and 4T1 cells either before or after receiving DOX treatment. The expression of the CAF related proteins, including α-SMA and fibronectin, and metastasis-associated E-cadherin were evaluated by immunocytochemistry. […] The quantitative comparison of their corresponding fluorescence intensities further verified these trends. […]

In assay [2] the test system is 4T1-luc lung and liver metastasis. Description: Post-surgery lung and liver metastasis in orthotopic breast cancer model. Format: in vivo, BALB/c mice. Here is the method:
(§2) The 4T1 orthotopic model was established following our previous method with a minor modification. All animal experiments were conducted in accordance with NIH regulations and approved by the Institutional Animal Care and Use Committee of the University of South Carolina. 4T1/Luc2 cells (2×10^5 in 20 μl PBS) were injected into the right 4th mammary fat pad of 6-8 weeks female BALB/c mice, and the primary tumor growth was monitored through bioluminescence signal using IVIS imaging system. Two weeks post tumor cell inoculation, the mice were randomly divided into 6 groups (n=10), including control, T-CeNP, T-DOX, free DOX, T-CeNP+T-DOX, and T-CeNP+ Free DOX, and received corresponding neoadjuvant chemotherapy, surgery, and postoperative chemotherapy. In brief, for neoadjuvant chemotherapy, the drugs were intravenously injected at a CeNP dosage of 1 mg/kg and DOX dosage of 3 mg/kg every 3 days for 4 times. Specifically, for the groups of
(§3) T-CeNP+T-DOX and T-CeNP+ free DOX, T-CeNP was administrated to mice 2 days prior to T-DOX or Free DOX treatment. Two days after the last dose, all mice underwent complete
surgical removal of the tumors following our previous method. Two days after the surgery, the mice received another 3 times administration of T-CeNP, T-DOX, free DOX, and their combination as post-surgical chemotherapy. At the end of the study (day 24), the mice were sacrificed, and the lung and liver were harvested for ex vivo bioluminescence imaging to examine the metastasis.
The harvested tumors and major organs were fixed with 4% paraformaldehyde and processed by paraffin sectioning and frozen sectioning. Tissue sections (heart, liver, spleen, and kidney) and lung sections were hematoxylin and eosin (H&E) stained for acute toxicity evaluation and lung metastasis evaluation. […] All the immunofluorescence images were recorded with a fluorescence microscope (Evos™ FL, ThermoFisher Scientific, MA, USA).

Assay [3] concerns 4T1 cells. Description: DOX induced EMT, immunocytochemistry of E-cadherin. Format: cell-based, murine. The conditions noted are these: 0.05 μM of free DOX for 48 hours.
From the text: as §1

The subject of assay [4] is 4T1-luc orthotopic tumor. Description: Neoadjuvant chemotherapy in orthotopic breast cancer model: primary tumor. Format: in vivo, BALB/c mice. The settings on record: i.v., CeNP 1 mg/kg, DOX 3 mg/kg, every 3 days for 4 times. As to the method:
as §2, §3
surgical removal of the tumors following our previous method. Two days after the surgery, the mice received another 3 times administration of T-CeNP, T-DOX, free DOX, and their combination as post-surgical chemotherapy. […]

Where [5] appears, read: ex vivo bioluminescence imaging, day 24.

Regarding `COc1cccc2c1C(=O)c1c(O)c3c(c(O)c1C2=O)C[C@@](O)(C(=O)CO)C[C@@H]3O[C@H]1C[C@H](N)[C@H](O)[C@H](C)O1` [free DOX, doxorubicin], the “level of α-SMA and fibronectin” value in assay [1] was “boosted level of α-SMA and fibronectin”. Also, in assay [2] (setting [5]), the liver metastasis result is listed as “inductive effect” and the lung metastasis occurrence entry is recorded as “developed lung metastasis”. Besides, in assay [2] (nodules on the surface of lung), the lung metastasis nodules entry is on record as “induced more metastasis nods in the lung”. Also, in assay [3], the E-cadherin expression entry is listed as “declined E-cadherin expression”. Also, in assay [4], the primary tumor size result is “only slightly reduced the size of the primary tumor”.
